Measured values: patent US20050171057A1, “Pantoprazole cyclodextrin inclusion complexes” (ALTANA PHARMA AG, priority 2002, published 2005)
Values after ≈ are worked out from the molar mass of the structure shown. Where two headings read alike, the source gives them in different places.

Legend:
[1] = Complexation (phase solubility) study of pantoprazole with βCD and HPβCD in phosphate buffer pH 7; assay type: physicochemical; conditions: in the presence of βCD (up to 1.8% p/v), phosphate buffer pH 7, maximum
Experimental: Methods: Various solutions of the different cyclodextrins taken into consideration were prepared in phosphate buffer solution pH 7 at known concentrations and used to create saturated solutions of pantoprazole. After equilibration, these saturated solutions were filtered through MF™ membrane filters (pore size 0.45 μm), appropriately diluted with phosphate buffer solution and subjected to uv/vis spectrophotometric analysis. The cyclodextrin solutions prepared with phosphate buffer ranged from concentrations of 0% p/v up to 1.8% p/v for βCD, 20% p/v for HPβCD.

[2] = Phase-solubility studies of PNTH with β-CD, HPβ-CD and SBβ-CD in phosphate buffer pH 7; assay type: physicochemical; conditions: for solubility: thermodynamic from solid; for increase of apparent solubility versus phosphate buffer alone: phosphate buffer pH 7
Experimental: The Solubility of PNTH in Phosphate Buffer Solution at pH 7 was Determined Using a Previously Constructed Asorbance vs. Concentration Calibration Curve.
A known amount of PNTH was suspended in cyclodextrin solutions of different concentrations ranging from; 0 to 1.8% (p/v) for β-CD, 0 to 20% (p/v) for H-Pβ-CD and 0 to 15% (p/v) for SB-β-CD. The resulting suspension was filtered using a PTFE 0.45μ filter, adequately diluted and then subjected to UV spectrophotometric analysis. The concentration of PNTH in the corresponding sample was then calculated referring to the relevant PNTH calibration curve.
UV-VIS spectra were recorded on a Jasco V570 Spectrophoto meter.

COc1ccnc(C[S+]([O-])c2nc3ccc(OC(F)F)cc3[nH]2)c1OC (centres unmarked) [pantoprazole, 5-difluoromethoxy-2-[(3,4-dimethoxy-2-pyridinyl)methylsulfinyl]-1H-benzimidazole]
increase of solubility with respect to solubility in phosphate buffer [1]: four
solubility ([2]; aqueous buffer, phosphate buffer solution pH 7, no cyclodextrin, read-out: solubility in phosphate buffer alone): 0.56 mM (≈ 215 µg/mL)
solubility ([2]; aqueous with cosolvent or surfactant or cyclodextrin, solutions of HPβ-CD (0 to 20% p/v) in phosphate buffer pH 7, maximum reached, read-out: apparent solubility with HPβ-CD): 17.8 mM (≈ 6820 µg/mL)
solubility ([2]; aqueous with cosolvent or surfactant or cyclodextrin, solutions of SBβ-CD (0 to 15% p/v) in phosphate buffer pH 7, maximum reached, read-out: apparent solubility with SBβ-CD): 9.3 mM (≈ 3570 µg/mL)
solubility ([2]; aqueous with cosolvent or surfactant or cyclodextrin, solutions of β-CD (0 to 1.8% p/v) in phosphate buffer pH 7, maximum reached, read-out: apparent solubility with β-CD): 2.25 mM (≈ 863 µg/mL)
increase of apparent solubility versus phosphate buffer alone ([2]; solutions of HPβ-CD (0 to 20% p/v)): 36 times
increase of apparent solubility versus phosphate buffer alone ([2]; solutions of SBβ-CD (0 to 15% p/v)): twenty
increase of apparent solubility versus phosphate buffer alone ([2]; solutions of β-CD (0 to 1.8% p/v)): four
